Assay results: the supplement of paper PMC10307832

Tests used:
Assay in all cases: relative viability (nuclei count vs DMSO), 5 days (fraction); higher = more cells survive
SK-MES-1 = tested on: SK-MES-1
Procedure, shortened: (§1)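 Five library-drug doses in √10 steps were combined with a fixed anchor-drug dose, or a single drug was given alone, by pin tool to lung cancer cell lines in 1536-well plates the day after seeding. Nuclei were stained and counted after 5 days. Relative viability is the nuclei count in treated wells over that in vehicle wells, taken as the median of duplicate plates.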

COR-L 105 = tested on: COR-L 105
Procedure, shortened: as §1

HCC-78 = tested on: HCC-78
Procedure, shortened: as §1

PC-14 = tested on: PC-14
Procedure, shortened: as §1

201T = tested on: 201T
Procedure, shortened: as §1

HCC-366 = tested on: HCC-366
Procedure, shortened: as §1

NCI-H1993 = tested on: NCI-H1993
Procedure, shortened: as §1

NCI-H1563 = tested on: NCI-H1563
Procedure, shortened: as §1

BEN = tested on: BEN
Procedure, shortened: as §1

LK-2 = tested on: LK-2
Procedure, shortened: as §1

NCI-H1915 = tested on: NCI-H1915
Procedure, shortened: as §1

NCI-H1734 = tested on: NCI-H1734
Procedure, shortened: as §1

NCI-H2405 = tested on: NCI-H2405
Procedure, shortened: as §1

EKVX = tested on: EKVX
Procedure, shortened: as §1

NCI-H661 = tested on: NCI-H661
Procedure, shortened: as §1

NCI-H460 = tested on: NCI-H460
Procedure, shortened: as §1

COR-L23 = tested on: COR-L23
Procedure, shortened: as §1

HCC-15 = tested on: HCC-15
Procedure, shortened: as §1

A-427 = tested on: A-427
Procedure, shortened: as §1

EMC-BAC-2 = tested on: EMC-BAC-2
Procedure, shortened: as §1

NCI-H647 = tested on: NCI-H647
Procedure, shortened: as §1

HOP-62 = tested on: HOP-62
Procedure, shortened: as §1

## CCNC(=O)c1noc(-c2cc(C(C)C)c(O)cc2O)c1-c1ccc(CN2CCOCC2)cc1 [Luminespib] + C[C@@H](Oc1cc(-c2cnn(C3CCNCC3)c2)cnc1N)c1c(Cl)ccc(F)c1Cl [Crizotinib] (partner 1 µM)
SK-MES-1; first compound 0.002 µM
  relative viability: 0.984
SK-MES-1; first compound 0.006325 µM
  relative viability: 1.03
SK-MES-1; first compound 0.02 µM
  relative viability: 1.08
SK-MES-1; first compound 0.06325 µM
  relative viability: 0.758
SK-MES-1; first compound 0.2 µM
  relative viability: 0.147
COR-L 105; first compound 0.002 µM
  relative viability: 0.996
COR-L 105; first compound 0.006325 µM
  relative viability: 0.897
COR-L 105; first compound 0.02 µM
  relative viability: 0.976
COR-L 105; first compound 0.06325 µM
  relative viability: 0.165
COR-L 105; first compound 0.2 µM
  relative viability: 0.224
HCC-78; first compound 0.002 µM
  relative viability: 0.302
HCC-78; first compound 0.06325 µM
  relative viability: 0.337
HCC-78; first compound 0.2 µM
  relative viability: 0.232
PC-14; first compound 0.002 µM
  relative viability: 0.973
PC-14; first compound 0.006325 µM
  relative viability: 0.845
PC-14; first compound 0.02 µM
  relative viability: 1.12
PC-14; first compound 0.06325 µM
  relative viability: 0.171
PC-14; first compound 0.2 µM
  relative viability: 0.102
201T; first compound 0.002 µM
  relative viability: 0.995
201T; first compound 0.006325 µM
  relative viability: 0.981
201T; first compound 0.02 µM
  relative viability: 0.968
201T; first compound 0.06325 µM
  relative viability: 1.03
201T; first compound 0.2 µM
  relative viability: 1.03
HCC-366; first compound 0.002 µM
  relative viability: 0.695
HCC-366; first compound 0.006325 µM
  relative viability: 0.659
HCC-366; first compound 0.02 µM
  relative viability: 0.549
HCC-366; first compound 0.06325 µM
  relative viability: 0.0174
HCC-366; first compound 0.2 µM
  relative viability: 0.0135
NCI-H1993; first compound 0.002 µM
  relative viability: 0.929
NCI-H1993; first compound 0.006325 µM
  relative viability: 0.953
NCI-H1993; first compound 0.02 µM
  relative viability: 0.884
NCI-H1993; first compound 0.06325 µM
  relative viability: 0.743
NCI-H1993; first compound 0.2 µM
  relative viability: 0.47
NCI-H1563; first compound 0.002 µM
  relative viability: 0.937
NCI-H1563; first compound 0.006325 µM
  relative viability: 0.834
NCI-H1563; first compound 0.02 µM
  relative viability: 0.811
NCI-H1563; first compound 0.06325 µM
  relative viability: 0.473
NCI-H1563; first compound 0.2 µM
  relative viability: 0.536
BEN; first compound 0.002 µM
  relative viability: 0.792
BEN; first compound 0.006325 µM
  relative viability: 0.834
BEN; first compound 0.02 µM
  relative viability: 0.416
BEN; first compound 0.06325 µM
  relative viability: 0.341
BEN; first compound 0.2 µM
  relative viability: 0.203
LK-2; first compound 0.002 µM
  relative viability: 0.215
LK-2; first compound 0.006325 µM
  relative viability: 0.217
LK-2; first compound 0.02 µM
  relative viability: 0.269
LK-2; first compound 0.06325 µM
  relative viability: 0.231
LK-2; first compound 0.2 µM
  relative viability: 0.196
NCI-H1915; first compound 0.002 µM
  relative viability: 0.952
NCI-H1915; first compound 0.006325 µM
  relative viability: 0.897
NCI-H1915; first compound 0.02 µM
  relative viability: 0.958
NCI-H1915; first compound 0.06325 µM
  relative viability: 0.904
NCI-H1915; first compound 0.2 µM
  relative viability: 0.851
NCI-H1734; first compound 0.002 µM
  relative viability: 0.77
NCI-H1734; first compound 0.006325 µM
  relative viability: 0.612
NCI-H1734; first compound 0.02 µM
  relative viability: 0.566
NCI-H1734; first compound 0.06325 µM
  relative viability: 0.135
NCI-H1734; first compound 0.2 µM
  relative viability: 0.0997
NCI-H2405; first compound 0.002 µM
  relative viability: 0.829
NCI-H2405; first compound 0.006325 µM
  relative viability: 0.644
NCI-H2405; first compound 0.02 µM
  relative viability: 0.705
NCI-H2405; first compound 0.06325 µM
  relative viability: 0.615
NCI-H2405; first compound 0.2 µM
  relative viability: 0.257
EKVX; first compound 0.002 µM
  relative viability: 0.985
EKVX; first compound 0.006325 µM
  relative viability: 0.989
EKVX; first compound 0.02 µM
  relative viability: 0.97
EKVX; first compound 0.06325 µM
  relative viability: 0.472
EKVX; first compound 0.2 µM
  relative viability: 0.218
NCI-H661; first compound 0.006325 µM
  relative viability: 0.936
NCI-H661; first compound 0.02 µM
  relative viability: 1.05
NCI-H661; first compound 0.06325 µM
  relative viability: 0.939
NCI-H661; first compound 0.2 µM
  relative viability: 0.715
NCI-H460; first compound 0.002 µM
  relative viability: 0.957
NCI-H460; first compound 0.006325 µM
  relative viability: 0.705
NCI-H460; first compound 0.02 µM
  relative viability: 0.0276
NCI-H460; first compound 0.06325 µM
  relative viability: 0.0089
NCI-H460; first compound 0.2 µM
  relative viability: 0.0097
COR-L23; first compound 0.002 µM
  relative viability: 0.806
COR-L23; first compound 0.006325 µM
  relative viability: 0.629
COR-L23; first compound 0.02 µM
  relative viability: 0.81
COR-L23; first compound 0.06325 µM
  relative viability: 0.0713
COR-L23; first compound 0.2 µM
  relative viability: 0.0608
HCC-15; first compound 0.002 µM
  relative viability: 0.836
HCC-15; first compound 0.006325 µM
  relative viability: 0.863
HCC-15; first compound 0.02 µM
  relative viability: 0.901
HCC-15; first compound 0.06325 µM
  relative viability: 0.473
HCC-15; first compound 0.2 µM
  relative viability: 0.412
A-427; first compound 0.002 µM
  relative viability: 1.09
A-427; first compound 0.006325 µM
  relative viability: 0.796
A-427; first compound 0.02 µM
  relative viability: 0.955
A-427; first compound 0.06325 µM
  relative viability: 0.873
A-427; first compound 0.2 µM
  relative viability: 0.835
EMC-BAC-2; first compound 0.002 µM
  relative viability: 0.844
EMC-BAC-2; first compound 0.006325 µM
  relative viability: 0.772
EMC-BAC-2; first compound 0.02 µM
  relative viability: 0.584
EMC-BAC-2; first compound 0.06325 µM
  relative viability: 0.729
EMC-BAC-2; first compound 0.2 µM
  relative viability: 0.759
NCI-H647; first compound 0.002 µM
  relative viability: 1.22
NCI-H647; first compound 0.006325 µM
  relative viability: 1.07
NCI-H647; first compound 0.02 µM
  relative viability: 1.15
NCI-H647; first compound 0.06325 µM
  relative viability: 0.0916
NCI-H647; first compound 0.2 µM
  relative viability: 0.0805
HOP-62; first compound 0.002 µM
  relative viability: 0.931
HOP-62; first compound 0.006325 µM
  relative viability: 0.962
HOP-62; first compound 0.02 µM
  relative viability: 0.79
HOP-62; first compound 0.06325 µM
  relative viability: 0.993
HOP-62; first compound 0.2 µM
  relative viability: 0.875
